# Results from patent US10544112B2, “Identification of ebsulfur analogues with broad-spectrum antifungal activity” (priority 2017, dated 2020).
# Tests used:
# [1] = test system: C. albicans ATCC 64124 (strain B); experiment: microbe, parasite or virus in culture; assay type: cell-based, Candida albicans; details: strain B; compounds 1-4n and AmB; 48 h, RPMI 1640
# Method: (§1) Fungal MIC determination experiments were performed using untreated 96-well plates (Corning). Cells were counted either by using a hemocytometer (Hausser Scientific, Horsham, Pa., USA) or by measuring optical density at attenuance of 600 nm (OD600) by using a Genesys 20 spectrophotometer (Thermo Scientific, Waltham, Mass., USA). Spectrophotometric and colorimetric measurements in 96-well plates were performed using a SpectraMax M5 spectrometer (Molecular Devices, Sunnyvale, Calif., USA).
# (§2) Yeast strains Candida albicans ATCC 10231 (strain A), C. albicans ATCC 64124 (strain B), and C. albicans ATCC MYA-2876(S) (strain C) were kindly provided by Dr. Jon Y. Takemoto (Utah State University, Logan, UT, USA). C. albicans ATCC MYA-90819(R) (strain D), C. albicans ATCC MYA-2310(S) (strain E), C. albicans ATCC 1237(R) (strain F), C. albicans ATCC MYA-1003(R) (strain G), Candida glabrata ATCC 2001 (strain H), Candida krusei ATCC 6258 (strain I), and Candida parapsilosis ATCC 22019 (strain J) were obtained from the American Type Culture Collection (ATCC, Manassas, Va., USA). The (S) and (R) indicate that ATCC reports these strains to be susceptible (S) and resistant (R) to ITC and FLC. The filamentous fungal strains Aspergillus flavus ATCC MYA-3631 (strain K), and Aspergillus terreus ATCC MYA-3633 (strain M) were also obtained from the American Type Culture Collection (ATCC, Manassas, Va., USA). Aspergillus nidulans ATCC 38163 (strain L) was kindly provided by Dr. Jon S. Thorson (University of Kentucky, Lexington, Ky., USA), respectively. Yeast strains were cultured at 35° C. Filamentous fungal strains were cultured at 25° C. and the spores were harvested. All fungal strains were cultured in RPMI 1640 medium (catalog # R6504, Sigma-Aldrich Chemical Co., St. Louis, Mo.) buffered to pH 7.0 with 0.165 M morpholinepropanesulfonic acid (MOPS) buffer (Sigma-Aldrich Chemical Co.).
# (§3) The MIC values against fungal strains were determined based on a previously published protocol. MIC values for ebsulfur (2a) analogues against fungal cells were evaluated in 96-well plates as described in the CLSI document M27-A3 with minor modifications. […] Therefore, potato dextrose broth (PDB) was used to grow the yeast inocula of all strains tested, which were later diluted in RPMI 1640 medium to perform determination of MIC values. […] The tested compounds (10 mg/mL) were diluted to the working stocks (500 μg/mL) by addition of DMSO. Two-fold serial dilution of the working stocks was prepared by addition of RPMI 1640 medium (100 μL) and cell suspension (100 μL) to 96-well microtiter plate to achieve final drug and inoculum concentrations ranging from 12.5-0.02 μg/mL and 5×10^3 CFU/mL, respectively. Plates were incubated for 48 h at 35° C. […]
# [2] = test system: C. albicans ATCC 90819(R) (strain D); experiment: microbe, parasite or virus in culture; assay type: cell-based, Candida albicans; details: strain D; compounds 1-4n and AmB; 48 h, RPMI 1640
# Method: as §1, §2, §3
# [3] = test system: C. albicans ATCC MYA-1003(R) (strain G); experiment: microbe, parasite or virus in culture; assay type: cell-based, Candida albicans; details: strain G; compounds 1-4n and AmB; 48 h, RPMI 1640
# Method: as §1, §2, §3
# [4] = test system: C. albicans ATCC MYA-1237(R) (strain F); experiment: microbe, parasite or virus in culture; assay type: cell-based, Candida albicans; details: strain F; compounds 1-4n and AmB; 48 h, RPMI 1640
# Method: as §1, §2, §3
# [5] = test system: C. albicans ATCC MYA-2310(S) (strain E); experiment: Antifungal MIC determination (CLSI M27-A3, 96-well); assay type: cell-based, Candida albicans; details: strain E; compounds 1-4n and AmB; 48 h, RPMI 1640
# Method: as §1, §2, §3
# [6] = test system: C. albicans ATCC MYA-2876(S) (strain C); experiment: as above; assay type: cell-based, Candida albicans; details: strain C; compounds 1-4n and AmB; 48 h, RPMI 1640
# Method: as §1, §2, §3
# [7] = test system: Candida albicans ATCC 10231 (strain A); experiment: as above; assay type: cell-based; details: strain A; compounds 1-4n and AmB; 48 h, RPMI 1640
# Method: as §1, §2, §3
# [8] = test system: Candida glabrata ATCC 2001 (strain H); experiment: as above; assay type: cell-based; details: strain H; compounds 1-4n and AmB; 48 h, RPMI 1640
# Method: as §1, §2, §3
# [9] = test system: Candida krusei ATCC 6258 (strain I); experiment: as above; assay type: cell-based; details: strain I; compounds 1-4n and AmB; 48 h, RPMI 1640
# Method: as §1, §2, §3
# [10] = test system: Candida parapsilosis ATCC 22019 (strain J); experiment: as above; assay type: cell-based; details: strain J; compounds 1-4n and AmB; 48 h, RPMI 1640
# Method: as §1, §2, §3
# [11] = test system: Aspergillus flavus ATCC MYA-3631 (strain K); experiment: Antifungal MIC determination, filamentous fungi spores; assay type: cell-based; details: all compounds
# Method: as §1, §2
# (§4) The MIC values against fungal strains were determined based on a previously published protocol. MIC values for ebsulfur (2a) analogues against fungal cells were evaluated in 96-well plates as described in the CLSI document M27-A3 with minor modifications. […] Therefore, potato dextrose broth (PDB) was used to grow the yeast inocula of all strains tested, which were later diluted in RPMI 1640 medium to perform determination of MIC values. […] The tested compounds (10 mg/mL) were diluted to the working stocks (500 μg/mL) by addition of DMSO. Two-fold serial dilution of the working stocks was prepared by addition of RPMI 1640 medium (100 μL) and cell suspension (100 μL) to 96-well microtiter plate to achieve final drug and inoculum concentrations ranging from 12.5-0.02 μg/mL and 5×10^3 CFU/mL, respectively. Plates were incubated for 48 h at 35° C.
# (§5) MIC assays for the spore-forming filamentous fungi, such as strain A. flavus ATCC MYA-3631 (strain K), were performed in a similar fashion. The filamentous fungal strains were first cultured at 25° C. on potato dextrose agar (PDA) plates for 3-5 days or until confluent. Spores were collected by washing the surface of the agar plates with dd H2O (5 mL) and then isolated the spores by gravity filtration (the spores are H2O soluble). […] Researchers working with spores should wear a facemask to prevent spore inhalation.
# [12] = test system: Aspergillus nidulans ATCC 38163 (strain L); experiment: as above; assay type: cell-based; details: strain L; spores
# Method: as §1, §2, §4, §5
# [13] = test system: Aspergillus terreus ATCC MYA-3633 (strain M); experiment: as above; assay type: cell-based; details: strain M; all compounds; spores
# Method: as §1, §2, §4, §5
# Candida strains (A-J) = experiment: Antifungal MIC, summary over panel of Candida strains; assay type: cell-based; details: Candida strains A-J
# Method: as §1, §2, §3
smiles,measurement,setting,value
CCCCCCCCCCCCn1sc2ccccc2c1=O [Compound 3d],MIC-0,[1],>12.5 mg/L
same,MIC-0,[2],>12.5 mg/L
same,MIC-0,[3],>12.5 mg/L
same,MIC-0,[4],>12.5 mg/L
same,MIC-0,[5],>12.5 mg/L
same,MIC-0,[6],>12.5 mg/L
same,MIC-0,[7],>12.5 mg/L
same,MIC-0,[8],12.5 mg/L
same,MIC-0,[9],>12.5 mg/L
same,MIC-0,[10],>12.5 mg/L
same,MIC-0,[11],>12.5 mg/L
same,MIC-0,[12],>12.5 mg/L
same,MIC-0,[13],>12.5 mg/L
same,"MIC values against Candida strains, range",Candida strains (A-J),> 12.5 mg/L
CC(C)c1ccc(-n2sc3ccccc3c2=O)cc1 [Compound 2e],MIC-0,[1],3.13 mg/L
same,MIC-0,[2],3.13 mg/L
same,MIC-0,[3],3.13 mg/L
same,MIC-0,[4],6.25 mg/L
same,MIC-0,[5],3.13 mg/L
same,MIC-0,[6],3.13 mg/L
same,MIC-0,[7],3.13 mg/L
same,MIC-0,[8],3.13 mg/L
same,MIC-0,[9],3.13 mg/L
same,MIC-0,[10],3.13 mg/L
same,MIC-0,[11],6.25 mg/L
same,MIC-0,[12],6.25 mg/L
same,MIC-0,[13],6.25 mg/L
same,"MIC values against Candida strains, range",Candida strains (A-J),3.13 to 6.25 mg/L
O=c1c2ccccc2sn1-c1cccc(Br)c1 [Compound 2g],MIC-0,[1],12.5 mg/L
same,MIC-0,[2],12.5 mg/L
same,MIC-0,[3],12.5 mg/L
same,MIC-0,[4],12.5 mg/L
same,MIC-0,[5],>12.5 mg/L
same,MIC-0,[6],12.5 mg/L
same,MIC-0,[7],>12.5 mg/L
same,MIC-0,[8],12.5 mg/L
same,MIC-0,[9],12.5 mg/L
same,MIC-0,[10],12.5 mg/L
same,MIC-0,[11],12.5 mg/L
same,MIC-0,[12],12.5 mg/L
same,MIC-0,[13],12.5 mg/L
same,"MIC values against Candida strains, range",Candida strains (A-J),> 12.5 mg/L
O=c1c2ccccc2sn1C1CCCCC1 [Compound 3l],MIC-0,[1],1.56 mg/L
same,MIC-0,[2],0.78 mg/L
same,MIC-0,[3],1.56 mg/L
same,MIC-0,[4],0.78 mg/L
same,MIC-0,[5],1.56 mg/L
same,MIC-0,[6],3.13 mg/L
same,MIC-0,[7],0.78 mg/L
same,MIC-0,[8],1.56 mg/L
same,MIC-0,[9],0.78 mg/L
same,MIC-0,[10],1.56 mg/L
same,MIC-0,[11],0.20 mg/L
same,MIC-0,[12],0.20 mg/L
same,MIC-0,[13],0.20 mg/L
same,"MIC values against Candida strains, range",Candida strains (A-J),0.78 to 3.13 mg/L
O=c1c2ccccc2sn1CCc1ccccc1 [Compound 3i],MIC-0,[1],1.56 mg/L
same,MIC-0,[2],1.56 mg/L
same,MIC-0,[3],1.56 mg/L
same,MIC-0,[4],1.56 mg/L
same,MIC-0,[5],1.56 mg/L
same,MIC-0,[6],1.56 mg/L
same,MIC-0,[7],1.56 mg/L
same,MIC-0,[8],1.56 mg/L
same,MIC-0,[9],1.56 mg/L
same,MIC-0,[10],1.56 mg/L
same,MIC-0,[11],0.78 mg/L
same,MIC-0,[12],0.20 mg/L
same,MIC-0,[13],0.20 mg/L
O=c1c2ccccc2sn1CCCc1ccccc1 [Compound 3j],MIC-0,[1],3.13 mg/L
same,MIC-0,[2],3.13 mg/L
same,MIC-0,[3],6.25 mg/L
same,MIC-0,[4],6.25 mg/L
same,MIC-0,[5],6.25 mg/L
same,MIC-0,[6],6.25 mg/L
same,MIC-0,[7],6.25 mg/L
same,MIC-0,[8],1.56 mg/L
same,MIC-0,[9],1.56 mg/L
same,MIC-0,[10],6.25 mg/L
same,MIC-0,[11],0.78 mg/L
same,MIC-0,[12],0.20 mg/L
same,MIC-0,[13],0.20 mg/L
same,"MIC values against Candida strains, range",Candida strains (A-J),1.56 to 62.5 mg/L
O=c1c2ccccc2sn1-c1ccc(Cl)cc1 [Compound 2c],MIC-0,[1],>12.5 mg/L
same,MIC-0,[2],6.25 mg/L
same,MIC-0,[3],12.5 mg/L
same,MIC-0,[4],6.25 mg/L
same,MIC-0,[5],6.25 mg/L
same,MIC-0,[6],12.5 mg/L
same,MIC-0,[7],3.13 mg/L
same,MIC-0,[8],6.25 mg/L
same,MIC-0,[9],3.13 mg/L
same,MIC-0,[10],12.5 mg/L
same,MIC-0,[11],6.25 mg/L
same,MIC-0,[12],6.25 mg/L
same,MIC-0,[13],6.25 mg/L
O=c1c2ccccc2sn1-c1ccc(Br)cc1 [Compound 2d],MIC-0,[1],3.13 mg/L
same,MIC-0,[2],3.13 mg/L
same,MIC-0,[3],3.13 mg/L
same,MIC-0,[4],1.56 mg/L
same,MIC-0,[5],0.78 mg/L
same,MIC-0,[6],1.56 mg/L
same,MIC-0,[7],3.13 mg/L
same,MIC-0,[8],6.25 mg/L
same,MIC-0,[9],3.13 mg/L
same,MIC-0,[10],6.25 mg/L
same,MIC-0,[11],12.5 mg/L
same,MIC-0,[12],12.5 mg/L
same,MIC-0,[13],12.5 mg/L
C#Cc1ccc(-n2sc3ccccc3c2=O)cc1 [Compound 2f],MIC-0,[1],12.5 mg/L
same,MIC-0,[2],12.5 mg/L
same,MIC-0,[3],12.5 mg/L
same,MIC-0,[4],12.5 mg/L
same,MIC-0,[5],>12.5 mg/L
same,MIC-0,[6],>12.5 mg/L
same,MIC-0,[7],12.5 mg/L
same,MIC-0,[8],6.25 mg/L
same,MIC-0,[9],6.25 mg/L
same,MIC-0,[10],12.5 mg/L
same,MIC-0,[11],12.5 mg/L
same,MIC-0,[12],12.5 mg/L
same,MIC-0,[13],12.5 mg/L
same,"MIC values against Candida strains, range",Candida strains (A-J),> 12.5 mg/L
Cc1cc(C)cc(-n2sc3ccccc3c2=O)c1 [Compound 2j],MIC-0,[1],6.25 mg/L
same,MIC-0,[2],12.5 mg/L
same,MIC-0,[3],3.13 mg/L
same,MIC-0,[4],3.13 mg/L
same,MIC-0,[5],0.78 mg/L
same,MIC-0,[6],1.56 mg/L
same,MIC-0,[7],3.13 mg/L
same,MIC-0,[8],12.5 mg/L
same,MIC-0,[9],12.5 mg/L
same,MIC-0,[10],12.5 mg/L
same,MIC-0,[11],12.5 mg/L
same,MIC-0,[12],12.5 mg/L
same,MIC-0,[13],12.5 mg/L
